# Measurements as given in patent US8367873B2, “Phenyl-substituted bicyclooctane-1,3-dione derivatives” (Bayer Cropscience AG, priority 2008, dated 2013).
# Columns and labels:
# Assay type in all cases: in vivo
# Echinocloa crus-galli [1] = assay: Herbicidal pre-emergence action; conditions: pre-emergence method, 80 g/ha, greenhouse, visual assessment vs untreated controls
# Description: (§1) Seeds of monocotylidonous and dicotylidonous weed and crop plants are placed in sandy loam in wood fibre pots and covered with soil. The test compounds, formulated in the form of wettable powders (WP), are then, as an aqueous suspension with a water application rate of 600 l/ha (converted), with 0.2% of wetting agent added, applied to the surface of the covering soil in different amounts.
# (§2) After the treatment, the pots are placed in a greenhouse and kept under good growth conditions for the test plants. The visual assessment of the emergence damage on the test plants is carried out after a trial period of three weeks by comparison with the untreated controls (herbicidal effect in percent: 100% effect=the plants have died, 0% effect=like control plants).
# Setaria viridis [2] = assay: Herbicidal pre-emergence action; conditions: pre-emergence method, 80 g/ha, greenhouse, visual assessment vs untreated controls
# Description: as §1, §2
# Lolium multiflorum [3] = assay: Herbicidal pre-emergence action; conditions: pre-emergence method, 80 g/ha, greenhouse, visual assessment vs untreated controls
# Description: as §1, §2
# Alopecurus myosuroides [4] = assay: Herbicidal pre-emergence action; conditions: pre-emergence method, 80 g/ha, greenhouse, visual assessment vs untreated controls
# Description: as §1, §2
# Echinocloa crus-galli [5] = assay: Herbicidal post-emergence action; conditions: post-emergence method, 80 g/ha
# Experimental: (§3) Seeds of monocotylidonous and dicotylidonous weed and crop plants are placed in sandy loam in wood fibre pots, covered with soil and cultivated in a greenhouse under good growth conditions. Two to three weeks after sowing, the test plants are treated at the one-leaf stage. The test compounds, formulated as wettable powders (WP), are then with a water application rate of 600 l/ha (converted), with 0.2% of wetting agent added, sprayed onto the green parts of the plants in different amounts. After the test plants have been kept in the greenhouse under optimum growth conditions for about three weeks, the effect of the preparations is assessed visually in comparison to untreated controls (herbicidal effect in percent: 100% effect=the plants have died, 0% effect=like control plants).
# Setaria viridis [6] = assay: Herbicidal post-emergence action; conditions: post-emergence method, 80 g/ha
# Experimental: as §3
# Lolium multiflorum [7] = assay: Herbicidal post-emergence action; conditions: post-emergence method, 80 g/ha
# Experimental: as §3
# Alopecurus myosuroides [8] = assay: Herbicidal post-emergence action; conditions: post-emergence method, 80 g/ha
# Experimental: as §3
# [9] = test system: monocotylidonous and dicotylidonous weed and crop plants; assay: Herbicidal post-emergence action (other test plants); conditions: post-emergence method, 80 g/ha
# Experimental: as §3
# [10] = test system: monocotylidonous and dicotylidonous weed and crop plants; assay: Herbicidal pre-emergence action (other test plants); conditions: pre-emergence method, 80 g/ha, greenhouse, visual assessment vs untreated controls
# Description: as §1, §2
SMILES,herbicidal effect ECHCG (Echinocloa crus-galli [1]) [%],herbicidal effect SETVI (Setaria viridis [2]) [%],herbicidal effect LOLMU (Lolium multiflorum [3]) [%],herbicidal effect ALOMY (Alopecurus myosuroides [4]) [%],herbicidal effect against ECHCG (Echinochloa crus-galli) (Echinocloa crus-galli [5]) [%],herbicidal effect against SETVI (Setaria viridis) (Setaria viridis [6]) [%],herbicidal effect against LOLMU (Lolium multiflorum) (Lolium multiflorum [7]) [%],herbicidal effect against ALOMY (Alopecurus myosuroides) (Alopecurus myosuroides [8]) [%],herbicidal effect against AVEFA (Avena fatua) [9] [%],herbicidal effect AVEFA [10] [%]
CCc1cc(C)cc(CC)c1C1=C(OC(=O)C(C)(C)C)C2CC3(CC2C1=O)OCCS3 (mixture of isomers) [I-b-19],100,90,100,100,100,80,40,20,30,
CCc1cc(C)cc(CC)c1C1=C(OC(=O)OC)C2CC3(CC2C1=O)OC(C)CC(C)O3 (mixture of isomers) [I-c-24],70,70,100,90,100,100,100,100,80,
CCc1cc(C)cc(CC)c1C1=C(O)[C@H]2CC(=NOC(C)C)C[C@H]2C1=O (relative stereo) [I-a-29],70,20,80,90,100,80,100,100,60,
CCc1cc(C)cc(CC)c1C1=C(O)[C@H]2CC(=NOC3CC3)C[C@H]2C1=O (relative stereo) [I-a-30],,70,70,80,100,50,90,90,0,0
CCc1cc(C)cc(CC)c1C1=C(OC(=O)C(C)(C)C)C2CC3(COC(C)(C)O3)CC2C1=O (stereo not drawn) [I-b-5],10,60,100,90,80,0,100,90,20,
COc1cc(C)cc(C)c1C1=C(OC(=O)C(C)C)C2CC3(CC2C1=O)OCC=CCO3 (stereo not drawn) [I-b-63],100,70,100,70,100,100,100,100,100,
CCc1cc(C)cc(C)c1C1=C(OC(=O)C(C)C)C2CC3(CC2C1=O)OCCCCO3 (stereo not drawn) [I-b-77],,60,90,60,100,90,100,100,60,40
CCc1cc(C)cc(CC)c1C1=C(OC(=O)OC)C2CC3(CC2C1=O)OCCCO3 (stereo not drawn) [I-c-35],,70,100,80,100,100,100,100,100,70
